Experimental data taken from ChEMBL document CHEMBL1129922, “Preparation and antibacterial activity of pyridopyridone analogs: C-1 modifications” (1997).
Values after ≈ are worked out from the molar mass of the structure shown.

What was measured:
Type in all cases: functional
Enterococcus faecium = experiment: In vitro antibacterial activity against Enterococcus faecium ATCC 8043 organism, activity expressed as minimum inhibitory concentration (MIC)
Escherichia coli = experiment: In vitro antibacterial activity against Escherichia coli juhl organism, activity expressed as minimum inhibitory concentration (MIC)
Pseudomonas aeruginosa = experiment: In vitro antibacterial activity against Pseudomonas aeruginosa K799/WT organism, activity expressed as minimum inhibitory concentration (MIC)
Staphylococcus aureus [1] = experiment: In vitro antibacterial activity against Staphylococcus aureus 1775 organism expressed as minimum inhibitory concentration (MIC)
Streptococcus pyogenes = experiment: In vitro antibacterial activity against Streptococcus pyogenes 930 organism, activity expressed as minimum inhibitory concentration (MIC)
Staphylococcus aureus [2] = experiment: In vitro antibacterial activity against Staphylococcus aureus NCTC 10649M organism expressed as minimum inhibitory concentration (MIC)

MIC (Enterococcus faecium) [µg/mL] | MIC (Escherichia coli) [µg/mL] | MIC (Pseudomonas aeruginosa) [µg/mL] | MIC (Staphylococcus aureus [1]) [µg/mL] | MIC (Streptococcus pyogenes) [µg/mL] | MIC (Staphylococcus aureus [2]) [µg/mL] | SMILES
1.56 (≈ 4.71 µM) | 0.2 (≈ 0.604 µM) | 0.78 (≈ 2.35 µM) | > 100 | 1.56 (≈ 4.71 µM) | 0.78 (≈ 2.35 µM) | C=Cc1cc(C(=O)O)c(=O)n2cc(F)c(N3CC[C@H](N)C3)c(C)c12
6.2 (≈ 16.5 µM) |  | 12.5 (≈ 33.3 µM) | 50 (≈ 133 µM) | 3.1 (≈ 8.26 µM) | 1.56 (≈ 4.16 µM) | Cc1c(N2CC[C@H](N)C2)c(F)cn2c(=O)c(C(=O)O)cc(CC(C)(C)C)c12
6.2 (≈ 17.3 µM) | 0.78 (≈ 2.17 µM) | 12.5 (≈ 34.8 µM) | 25 (≈ 69.6 µM) | 6.2 (≈ 17.3 µM) | 1.56 (≈ 4.34 µM) | Cc1c(N2CC[C@H](N)C2)c(F)cn2c(=O)c(C(=O)O)cc(CC3CC3)c12
0.39 (≈ 1.22 µM) | 0.05 (≈ 0.157 µM) | 3.1 (≈ 9.71 µM) | 12.5 (≈ 39.1 µM) | 0.39 (≈ 1.22 µM) | 0.1 (≈ 0.313 µM) | Cc1cc(C(=O)O)c(=O)n2cc(F)c(N3CC[C@H](N)C3)c(C)c12
0.39 (≈ 1.09 µM) | 0.05 (≈ 0.139 µM) | 3.1 (≈ 8.63 µM) | 12.5 (≈ 34.8 µM) | 0.39 (≈ 1.09 µM) | 0.1 (≈ 0.278 µM) | Cc1c(N2CC[C@H](N)C2)c(F)cn2c(=O)c(C(=O)O)cc(C3CCC3)c12
> 100 | 12.5 (≈ 34.4 µM) | 100 (≈ 275 µM) | > 100 |  | 50 (≈ 138 µM) | COCCc1cc(C(=O)O)c(=O)n2cc(F)c(N3CC[C@H](N)C3)c(C)c12
12.5 (≈ 34.6 µM) | 1.56 (≈ 4.32 µM) | 50 (≈ 138 µM) | > 100 | 50 (≈ 138 µM) | 6.2 (≈ 17.2 µM) | CCC(C)c1cc(C(=O)O)c(=O)n2cc(F)c(N3CC[C@H](N)C3)c(C)c12 (stereo not given in full)
12.5 (≈ 33.5 µM) | 0.78 (≈ 2.09 µM) | 25 (≈ 66.9 µM) | 50 (≈ 134 µM) | 12.5 (≈ 33.5 µM) | 3.1 (≈ 8.3 µM) | Cc1c(N2CC[C@H](N)C2)c(F)cn2c(=O)c(C(=O)O)cc(C3CCCC3)c12
1.56 (≈ 4.52 µM) | 1.56 (≈ 4.52 µM) | 3.1 (≈ 8.98 µM) | > 100 | 1.56 (≈ 4.52 µM) | 0.78 (≈ 2.26 µM) | C=CCc1cc(C(=O)O)c(=O)n2cc(F)c(N3CC[C@H](N)C3)c(C)c12
0.2 (≈ 0.576 µM) | 0.39 (≈ 1.12 µM) | 1.56 (≈ 4.49 µM) | 6.2 (≈ 17.8 µM) | 0.2 (≈ 0.576 µM) | 0.1 (≈ 0.288 µM) | Cc1c(N2CC[C@H](N)C2)c(F)cn2c(=O)c(C(=O)O)cc(C(C)C)c12
25 (≈ 81.9 µM) | 0.39 (≈ 1.28 µM) | 6.2 (≈ 20.3 µM) | > 100 | 12.5 (≈ 40.9 µM) | 3.1 (≈ 10.2 µM) | Cc1c(N2CC[C@H](N)C2)c(F)cn2c(=O)c(C(=O)O)ccc12
0.02 (≈ 0.0579 µM) | 0.01 (≈ 0.029 µM) | 0.05 (≈ 0.145 µM) | 0.78 (≈ 2.26 µM) | 0.02 (≈ 0.0579 µM) | 0.01 (≈ 0.029 µM) | Cc1c(N2CC[C@H](N)C2)c(F)cn2c(=O)c(C(=O)O)cc(C3CC3)c12 [ABT-719]
